Measured values as given in patent publication US20260184700A1, “PDK1 REGULATORY COMPOUND AND COMPOSITION CONTAINING THE SAME” (PROVIBIO CO., LTD., priority 2024, published 2026).

Legend:
[1] = tested on: phospho-PDK1 in SU-DHL-8 cells; experiment: PDK1 phosphorylation (pPDK1) by flow cytometry in SU-DHL-8 cells; format: cell-based, human; details: SU-DHL-8, 24 hours, pPDK1-PE flow cytometry, vs control group
Experimental: SU-DHL-8 cells were cultured in RPMI-1640 medium (containing 10% FBS, 100 U/mL penicillin, and 100 μg/mL streptomycin), and the cell concentration was adjusted to 1×10^6 cells/mL and seeded into a 12-well plate. After stabilizing the cells, the compound of the present invention was added, and the cells were cultured for 24 hours.
After drug treatment, the cells were harvested, and the Fc receptor blocking process was performed. The cells were then fixed and permeabilized using the Intracellular Staining Kit (Cat. No. BD554715) from BD Biosciences. Subsequently, the intracellular pPDK1 was stained using the pPDK1-PE fluorescently labeled antibody (BD Biosciences).
Referring to the figure, the vertical axis represents the phosphorylation level of PDK1 (phospho-PDK1 expression level), and the horizontal axis denotes the concentration-dependent treatment conditions of each compound.

[2] = tested on: Human Osteosarcoma, Saos-2; experiment: Relative cell viability, CCK-8, Saos-2; format: cell-based
Experimental: Human-derived head and neck cancer cell line Fadu and osteosarcoma cell line Saos-2 were cultured in MEM medium containing 10% FBS, 100 U/mL penicillin, and 100 μg/mL streptomycin.
(§1) Following stabilization, the cells were harvested using Trypsin-EDTA treatment, centrifuged at 1,200 rpm for 3 minutes, the supernatant was removed, and the cells were resuspended in the same medium. They were then seeded into a 96-well plate (Costar 96-well cell culture plate, Corning) at 100 μL per well, and the conditions were adjusted as indicated in Table 5.
The cells were cultured in a 5% CO2 incubator at 37° C. for 24 hours, and after stabilization of the cells, each plate was washed with 200 μL of PBS per well and treated with 50 μL of culture medium per well. […]
(§2) After that, 10 μL of CCK-8 was added to each well, and the plate was incubated again at 37° C. in a 5% CO2 incubator for 2 hours.
(§3) In other words, when the survival rate of untreated cells (DMSO) is set at 100%, the relative cell survival rate in each group treated with the drug at different concentrations is indicated.

[3] = tested on: psoriasis-induced BALB/c mice; experiment: Psoriasis animal model (Aldara cream, Imiquimod); format: in vivo, mouse
Experimental: To verify the therapeutic effect of the compound according to the present invention on psoriasis, a psoriasis animal model was established as follows, and the compound according to the present invention was administered to evaluate the alleviation of skin lesions and changes in immune cell patterns.
For the establishment of the psoriasis animal model, BALB/c mice (7 weeks old, female, 20 g) were purchased from HanabioTech Co., Ltd. and acclimatized to the rearing environment for one week.
Subsequently, the hair on the mouse back was shaved using a hair removal device for the first time, and then completely shaved using a depilatory cream (Nicrin Cream (80% thioglycolic acid, Il Dong Pharmaceutical)) for the second time. The mice were then kept for 24 hours to confirm the absence of skin damage.
To verify the psoriasis prevention and therapeutic effects of the compounds according to the present invention, the following experimental groups were established:
[Normal control group (Normal, Not Treatment), psoriasis-induced control group (Psoriasis, Not Treatment), psoriasis-induced vehicle control group (Psoriasis, Vehicle), experimental group (GO85, GO86, GO88, GO89, PBK-2024-010, PBK-2024-026, PBK-2025-002, PBK-2025-004, PBK-2025-016, PBK-2025-017, PBK-2025-023)]. […]
Body weights of mice in each group were measured on days 1, 4, and 8 after the start of injection and psoriasis induction. […]
To evaluate the therapeutic effect in a psoriasis-induced mouse model, the PASI (Psoriasis Area and Severity Index) score was measured.
The PASI score is based on three criteria: erythema, scaling, and skin thickness, each scored from 0 (none) to 4 (severe). […]
Observations were conducted daily at the same time, and the same observer visually assessed each criterion and recorded the scores, with the results presented in FIG. 13. […]
All samples were measured in duplicate, and the absorbance was measured at 450 nm using a microplate reader.

[4] = tested on: Human Melanoma cancer cell, Malme-3M; experiment: Relative cell viability, CCK-8, Malme-3M; format: cell-based; details: 48 hours
Experimental: Human-derived breast cancer cell line MCF-7, human-derived lung cancer cell line A549, human-derived colorectal cancer cell line HCT-116, human pancreatic cancer cell line AsPC-1, glioblastoma cell line A172, and melanoma cell line Malme-3M were obtained from the Korean Cell Bank. gastric cancer cell line SNU-719, and bladder cancer cell line T24 were cultured in RPMI-1640 medium containing 10% FBS.
as §1
The cells were cultured in a 5% CO2 incubator at 37° C. for 24 hours, and after stabilization of the cells, each plate was washed with 200 μL of PBS per well and treated with 50 μL of culture medium per well.
as §2, §3

| SMILES | PDK1 phosphorylation (phospho-PDK1 expression level) [1] | Relative cell viability (%) ([2]; Saos-2, 10 μM, 48 hours) | Relative cell viability (%) ([2]; Saos-2, 30 μM, 48 hours) | Relative cell viability (%) ([2]; Saos-2, 50 μM, 48 hours) | Relative cell viability (%) ([2]; Saos-2, 48 hours) | efficacy in improving dermatological symptoms [3] | Relative cell viability (%) ([4]; 1 μM) | Relative cell viability (%) ([4]; 10 μM) | Relative cell viability (%) ([4]; 30 μM) | Relative cell viability (%) ([4]; 50 μM) |
| --- | --- | --- | --- | --- | --- | --- | --- | --- | --- | --- |
| CC1(C)CN(CCCCCCCCCCCCC(=O)Nc2nc(N)c3[nH]cnc3n2)CCO1 [Compound 11, 12-[4-(2,2-dimethylmorpholin-4-yl)]dodecyl-N-(6-aminopurine-2-yl)carboxamide] | stronger PDK1 inhibition | 24.98% | 16.00% | 36.73% | 36.73% | excellent efficacy in improving dermatological symptoms | 44.06% | 37.40% | 36.80% | 38.87% |
| Nc1ncccc1C(=O)NCCCCCCCCCCCCN1CCNCC1 [Compound 14, 2-Amino-N-(12-(piperazin-1-yl)dodecyl)nicotinamide] | stronger PDK1 inhibition |  |  |  |  | excellent efficacy in improving dermatological symptoms |  |  |  |  |
